Counter-ions that a name gives are not always drawn.
Legend:
Type in all cases: biochemical
[1] = test system: Protease XXIII from Aspergillus oryzae (Sigma, Enzyme A); test: Homogeneous aqueous enzymatic resolution (ester hydrolysis), Enzyme A; conditions: acid product; 100 mg enzyme A, pH 7.0, 20-22 C, 20 hours
Description: No further purification was performed.

[2] = test system: lipase from Candida cylindracea (Meito Sangyo, Lipase OF); test: Activity of the carrier lipase against the ester
[3] = biological target: T1, Protease XXVII, Nagarse (Sigma, Enzyme D) (Bacillus amyloliquefaciens, UniProt P00782); test: Homogeneous aqueous enzymatic resolution (ester hydrolysis), Enzyme D; conditions: 100 mg enzyme D, 10 mmol ester in 100 ml 0.2 M phosphate buffer pH 7.0, 20-22 C, 20 hours
T1 construct: purchased Sigma
T1 sequence (P00782 108-382): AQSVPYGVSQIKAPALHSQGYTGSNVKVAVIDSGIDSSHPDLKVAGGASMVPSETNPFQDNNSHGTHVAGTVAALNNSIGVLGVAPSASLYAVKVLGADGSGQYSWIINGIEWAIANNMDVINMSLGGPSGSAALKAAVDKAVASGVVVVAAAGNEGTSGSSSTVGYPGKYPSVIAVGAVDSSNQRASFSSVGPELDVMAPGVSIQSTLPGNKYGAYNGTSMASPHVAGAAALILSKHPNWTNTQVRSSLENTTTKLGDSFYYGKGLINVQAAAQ

[4] = test system: protease Prozyme 6 from Aspergillus oryzae (Amano, Enzyme F); test: Asymmetric hydrolysis in an extractive membrane reactor, enzyme not associated with the membrane, Enzyme F
Source text: Hexane was recirculated through the lumen or bores of the fibers in the module. The aqueous solution in the shell contained the enzyme and ester. While the cellulose membrane is water-wet, the membrane rejects the macromolecular enzyme (molecular weight 18,000). Therefore, the enzyme resides solely in the aqueous ester solution. As the ibuprofen acid was formed, it was extracted into the hexane phase, thereby reducing the effect of product (ibuprofen acid) inhibition on the activity of the enzyme.
The aqueous phase used to extract the ibuprofen acid from hexane in this module contained 0.1M sodium carbonate buffer at pH 9.5. The pH was maintained at this value by the addition of 8.22M sodium hydroxide as required.
In this Example, the aqueous stream in the extractive membrane reactor module consisted of a solution of the sulfomethyl ester of ibuprofen (1), which solution was prepared by adding 32.51 gm of the sodium salt of the ester (at 75% chemical purity) to 1000 ml of 0.1M sodium phosphate buffer (pH 7.0). The reaction was started by adding 2 gm of the protease (F) from the fungus Aspergillus oryzae (from Amano Enzyme Corporation, Prozyme 6, 60,000 units per gm of solid). […]
The optical rotation of the recovered product was measured by polarimetry; the experimentally determined value for [α]D was -56.7° (measured at c=0.815 in ethanol), thereby indicating the R isomer of ibuprofen. The sample was also analyzed by chiral HPLC using a Bakerbond DNBPG (covalent) column (4.6×250 mm), with 96.9% hexane:3.0% 2-propanol:0.1% acetonitrile as the mobile phase at 2 ml/min after derivatization with naphthalene amine. […] The optical purity or enantiomeric excess of this R ibuprofen sample as determined by this chiral HPLC procedure was 99.3% (i.e., enantiomeric excess of R ibuprofen).
The aqueous phase at pH 7.0 (as recovered from the extractive membrane reactor) was mixed with 280 gm of sodium chloride to salt out the remaining unconverted ester. […] The optical rotation (as measured by polarimetry) was [α]D =+57.4° (c=1.29 in ethanol), indicating the S isomer of ibuprofen. […]

[5] = test system: protease Prozyme 6 from Aspergillus oryzae (Amano, Enzyme F); test: Asymmetric hydrolysis in an extractive dispersion reactor, Enzyme F; conditions: 100 mg Prozyme 6, 3.38 gm ester in 100 ml buffer pH 7.0 plus 100 ml hexane, room temperature, 3.5 hours
Description: In this Example, the hexane was dispersed in the reaction vessel to extract the inhibitory ibuprofen acid as it is formed. The reaction was started by adding 100 mg of the protease from the fungus Aspergillus oryzae (from Amano Enzyme Corporation, Prozyme 6, 60,000 units per mg of solid).
After 3.5 hours at room temperature with vigorous stirring, the solution was acidified to pH 2 and extracted with 2 volumes of hexane. The aqueous phase was saved for subsequent workup. The hexane phase was dried over MgSO4 and evaporated to dryness. The resolved ibuprofen product so recovered consisted of 490 mg of white powder, indicating 24% conversion. The optical rotation was -0.568° (c=1.015 in ethanol), indicating the R isomer of ibuprofen.

[6] = test system: protease Prozyme 6 from Aspergillus oryzae (Amano, Enzyme F); test: Homogeneous aqueous enzymatic resolution (ester hydrolysis), Enzyme F
Description: (§1) The enzymatic reaction mixtures were capped and briefly shaken until all the substrate had dissolved, and the enzyme had completely dissolved or dispersed. […] Evaporation of the ether left a white solid. Rotations were measured at c=1 in CHCl3.
as §1
The reaction was started by adding 100 mg of the protease (F) from the fungus Aspergillus oryzae (from Amano Enzyme Corporation, Prozyme 6, 60,000 units per mg of solid).
After 20 hours at room temperature, the solution was acidified to pH 2 and extracted with 3 volumes of diethyl ether. The aqueous phase was saved for subsequent workup. The ether phase was washed with two volumes of distilled water and then one volume of saturated sodium chloride, and then it was dried over MgSO4 and subsequently evaporated to dryness. The resolved ibuprofen product recovered was 930 mg of white powder, indicating 45% conversion of racemic ester to acid. The optical rotation was -0.580° (measured at c=1 in ethanol), indicating the R isomer of ibuprofen.
35 mg of protease Enzyme F, as the commercial preparation Prozyme 6, were added to the aqueous solution. The reaction flask was capped, and briefly shaken until all the enzyme had dissolved or dispersed. […] The resulting mixture was diluted with one volume of water and was extracted with diethyl ether (2 times 200 ml). The ether layers were combined and backwashed with water (2 times 200 ml), saturated NaCl solution (200 ml), and then dried over MgSO4.
In this control run, a 0.5M ester solution of (1) was prepared in 325 ml of 0.1M sodium phosphate buffer (pH 7.0). The reaction was started by adding 3 gm of the above enzyme (F). The pH was controlled at 7.0 with 8.22M sodium hydroxide. After 6.49 hours at 30 ° C., 6.63 ml of hydroxide were added, indicating 37.7% conversion. The reaction was allowed to continue overnight and, after 23.1 hours, a total of 7.2 ml of sodium hydroxide were added, indicating 40.9% conversion.

[7] = test system: Protease XXIII from Aspergillus oryzae (Sigma, Enzyme A); test: pH-stat rate of hydrolysis of single enantiomers, Enzyme A; conditions: 50 mM single enantiomer, 50 mM buffer pH 7.6, enzyme A
Description: 15 ml of a solution containing one enantiomer of the ester at a concentration of 50 mM, and Na3 PO4 buffer at 50 mM and pH 7.6 was observed using a pH stat device. 0.1 ml of a 50 mg/ml solution of enzyme A, made up from
Rates of hydrolysis of both enantiomers of the ester compound were
determined for the enzyme. The ratio of the rates of hydrolysis for the
two enantiomers for the two enantiomers with respect to the enzyme
indicate the stereospecificity of that enzyme's hydrolytic action on the […]

[8] = test system: Protease XXIV, bacterial protease (Sigma, Enzyme J); test: pH-stat rate of hydrolysis of single enantiomers, Enzyme J; conditions: 50 mM single enantiomer, 50 mM buffer pH 7.6, enzyme J
Description: (§2) 15 ml of a solution containing one enantiomer of the ester at a concentration of 50 mM, and Na3 PO4 buffer at 50 mM and pH 7.6 was observed using a pH stat device. 0.1 ml of a 50 mg/ml solution of Enzyme J, made up from the commercially available preparation in 50 mM Na3 PO4 buffer at pH 7.6, were added. Rates of hydrolysis of both enantiomers of the ester compound were determined for the enzyme. The ratio of the rates of hydrolysis for the two enantiomers for the two enantiomers with respect to the enzyme indicate the stereospecificity of that enzyme's hydrolytic action on the racemic mixture of the ester. No evidence for the hydrolysis of the acetylthio ester portion of the substrate molecule was found.

[9] = biological target: T2, Protease VIII, Subtilopeptidase A (subtilisin Carlsberg) (Sigma, Enzyme B) (Bacillus licheniformis, UniProt P00780); test: pH-stat rate of hydrolysis of single enantiomers, Enzyme B; conditions: 50 mM single enantiomer, 50 mM buffer pH 7.6, enzyme B
T2 sequence (P00780 106-379): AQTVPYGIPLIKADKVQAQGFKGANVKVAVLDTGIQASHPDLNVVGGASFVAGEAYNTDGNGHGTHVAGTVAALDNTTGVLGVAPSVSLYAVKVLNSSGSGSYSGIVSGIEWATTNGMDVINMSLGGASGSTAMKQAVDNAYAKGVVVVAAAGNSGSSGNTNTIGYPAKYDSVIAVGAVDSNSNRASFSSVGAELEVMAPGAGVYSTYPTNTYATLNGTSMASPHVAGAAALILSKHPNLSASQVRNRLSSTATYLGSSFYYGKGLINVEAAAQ
Description: 15 ml of a solution containing one enantiomer of the ester at a concentration of 50 mM, and Na3 PO4 buffer at 50 mM and pH 7.6 wa observed using pH stat device 0.1 ml of a 50 mg/ml solution of enzyme B, made up from
as §2, with “the” for “15 ml of a solution containing one enantiomer of the ester at a concentration of 50 mM, and Na3 PO4 buffer at 50 mM and pH 7.6 was observed using a pH stat device. 0.1 ml of a 50 mg/ml solution of Enzyme J, made up from the”

[10] = test system: Protease XIV from Streptomyces griseus (Sigma, Enzyme I); test: pH-stat rate of hydrolysis of single enantiomers, Enzyme I; conditions: 50 mM single enantiomer, 50 mM buffer pH 7.6, enzyme I
Description: as §2, with “solution of protease enzyme I, made up” for “solution of Enzyme J, made up”, “for the protease enzyme. The” for “for the enzyme. The”

[11] = biological target: T1, Protease XXVII, Nagarse (Sigma, Enzyme D); test: pH-stat rate of hydrolysis of single enantiomers, Enzyme D; conditions: 50 mM single enantiomer, 50 mM buffer pH 7.6, enzyme D
Description: as §2, with “enzyme D,” for “Enzyme J,”, “thioacetyl” for “acetylthio”

[12] = chiral HPLC, after 50% conversion

| SMILES | % e.e. [1] [%] | activity of the lipase against the ester [2] | % CONVERSION [3] [%] | conversion of the racemic ester to ibuprofen acid ([4]; 2 gm Prozyme 6, 32.51 gm ester in 1000 ml 0.1M sodium phosphate pH 7.0, hexane extractant, room temperature, 6.3 hours) [%] | enantiomeric excess of R ibuprofen (acid product) [4, 12] [%] | enantiomeric excess of S ibuprofen (from unconverted ester hydrolyzed at pH 12) [4, 12] [%] | conversion [5] [%] | conversion of racemic ester to acid ([6]; 100 mg Prozyme 6 (F), 3.22 gm ester in 100 ml 0.2M sodium phosphate pH 7.0, room temperature, 20 hours) [%] | conversion ([6]; 0.5M ester, 3 gm enzyme F, pH 7.0, 30 C, after 23.1 hours, 500000 µM) [%] | Rate of hydrolysis [7] [umols/hr/mg] | Rate of hydrolysis [8] [umols/hr/mg] | Rate of hydrolysis [9] [umols/hr/mg] | Rate of hydrolysis [10] [umols/hr/mg] | Rate of hydrolysis [11] [umols/hr/mg] |
| --- | --- | --- | --- | --- | --- | --- | --- | --- | --- | --- | --- | --- | --- | --- |
| CC(C)Cc1ccc(C(C)C(=O)OCS(=O)(=O)O)cc1 (racemic) [Compound 1, Sodium Salt of 4-Sulfomethyl Ester of 2-(4-Isobutylphenyl)propanoic Acid] | > 99 | inactive | 34.0 | 50 | 99.3 | 98.9 | 24 | 45 | 40.9 | – | – | – | – | – |
| CC(=O)SC[C@@H](C)C(=O)OCS(=O)(=O)O [Compound 14, Potassium Salt of the Sulfomethyl Ester of D-(-)-S-3-Acetylthio-2-methylpropanoic Acid] | – | – | – | – | – | – | – | – | – | 5.3 | 61 | 65 | 63 | 27 |
| CC(=O)SC[C@H](C)C(=O)OCS(=O)(=O)O [Compound 15, Potassium Salt of the Sulfomethyl Ester of L-(+)-S-3-Acetylthio-2-methylpropanoic Acid] | – | – | – | – | – | – | – | – | – | 12 | 65 | 135 | 105 | 29 |

From patent publication US5198568A, “Compounds useful in enzymatic resolution systems and their preparation” (priority 1991, dated 1993)
